Results as given in PMC7979765, “trans-Translation inhibitors bind to a novel site on the ribosome and clear Neisseria gonorrhoeae in vivo” (Nature Communications, 2021).
Values after ≈ are worked out from the molar mass of the structure shown. Like-named read-outs stand apart in the source and are kept apart here.

Test system: Neisseria gonorrhoeae
Experiment: MIC, microbroth dilution, G77L medium
Assay type: cell-based

Work on `O=C(Nc1nnc(-c2ccc(F)cc2)o1)N1CCc2ccccc2C1` [MBX-4132] yielded an MIC (Neisseria gonorrhoeae ATCC 49226, source data, individual replicates) of 0.08459 µg/mL (≈ 0.25 µM), an MIC (Neisseria gonorrhoeae, ATCC49226, Neisseria gonorrhoeae ATCC 49226, source data, individual replicates) of 0.169 µg/mL (≈ 0.5 µM) and an MIC (Neisseria gonorrhoeae, ATCC49226, read-out: MIC GEOMEAN, strain ATCC 49226, geomean of replicates) of 0.134 µg/mL (≈ 0.396 µM). For the same molecule, the MIC (Neisseria gonorrhoeae, ATCC49226, strain ATCC 49226, replicates 1-3) was 0.169 µg/mL (≈ 0.499 µM), the MIC (Neisseria gonorrhoeae, ATCC49226, strain ATCC 49226, type strain) was 0.13 µg/mL (≈ 0.384 µM) and the MIC (Neisseria gonorrhoeae, ATCC49226, strain MMX ATCC 49226, broth dilution by Micromyx) was 0.27 µg/mL (≈ 0.798 µM). For the same molecule, the MIC (Neisseria gonorrhoeae, ATCC700719, read-out: MIC GEOMEAN, strain ATCC 700719, geomean of replicates) was 0.213 µg/mL (≈ 0.63 µM), the MIC (Neisseria gonorrhoeae, ATCC700719, strain ATCC 700719, SPT) was 0.21 µg/mL (≈ 0.621 µM) and the MIC (Neisseria gonorrhoeae, ATCC700719, strain ATCC 700719, replicates 1-3) was 0.169 µg/mL (≈ 0.499 µM). It also gave an MIC (Neisseria gonorrhoeae, ATCC700825, read-out: MIC GEOMEAN, strain ATCC 700825, geomean of replicates) of 0.042 µg/mL (≈ 0.124 µM), an MIC (Neisseria gonorrhoeae, ATCC700825, strain ATCC 700825, STR) of 0.04 µg/mL (≈ 0.118 µM) and an MIC (Neisseria gonorrhoeae, ATCC700825, strain ATCC 700825, replicates 1-3) of 0.042 µg/mL (≈ 0.124 µM). The MIC (Neisseria gonorrhoeae, BAA1846, read-out: MIC GEOMEAN, strain BAA-1846, geomean of replicates) was 0.042 µg/mL (≈ 0.124 µM), the MIC (Neisseria gonorrhoeae, BAA1846, strain BAA-1846, TET) was 0.04 µg/mL (≈ 0.118 µM) and the MIC (Neisseria gonorrhoeae, BAA1846, strain BAA-1846, replicates 1-3) was 0.042 µg/mL (≈ 0.124 µM). It also gave an MIC90 (Neisseria gonorrhoeae, read-out: MIC90 (n)) of 0.53 µg/mL (≈ 1.57 µM), an MIC (Neisseria gonorrhoeae, read-out: MIC GEOMEAN, strain CDC-0165, geomean of replicates) of 0.677 µg/mL (≈ 2 µM) and an MIC (Neisseria gonorrhoeae, read-out: MIC GEOMEAN, strain CDC-0166, geomean of replicates) of 0.169 µg/mL (≈ 0.499 µM). It also gave an MIC (Neisseria gonorrhoeae, read-out: MIC GEOMEAN, strain CDC-0167, geomean of replicates) of 0.134 µg/mL (≈ 0.396 µM), an MIC (Neisseria gonorrhoeae, read-out: MIC GEOMEAN, strain CDC-0169, geomean of replicates) of 0.169 µg/mL (≈ 0.499 µM) and an MIC (Neisseria gonorrhoeae, read-out: MIC GEOMEAN, strain CDC-0170, geomean of replicates) of 0.169 µg/mL (≈ 0.499 µM). For the same molecule, the MIC (Neisseria gonorrhoeae, read-out: MIC GEOMEAN, strain CDC-0171, geomean of replicates) was 0.169 µg/mL (≈ 0.499 µM), the MIC (Neisseria gonorrhoeae, read-out: MIC GEOMEAN, strain CDC-0172, geomean of replicates) was 0.169 µg/mL (≈ 0.499 µM) and the MIC (Neisseria gonorrhoeae, read-out: MIC GEOMEAN, strain CDC-0173, geomean of replicates) was 0.169 µg/mL (≈ 0.499 µM). It also gave an MIC (Neisseria gonorrhoeae, read-out: MIC GEOMEAN, strain CDC-0174, geomean of replicates) of 0.169 µg/mL (≈ 0.499 µM), an MIC (Neisseria gonorrhoeae, read-out: MIC GEOMEAN, strain CDC-0175, geomean of replicates) of 0.085 µg/mL (≈ 0.251 µM) and an MIC (Neisseria gonorrhoeae, read-out: MIC GEOMEAN, strain CDC-0176, geomean of replicates) of 0.338 µg/mL (≈ 0.999 µM). The MIC (Neisseria gonorrhoeae, read-out: MIC GEOMEAN, strain CDC-0177, geomean of replicates) was 0.169 µg/mL (≈ 0.499 µM), the MIC (Neisseria gonorrhoeae, read-out: MIC GEOMEAN, strain CDC-0178, geomean of replicates) was 0.338 µg/mL (≈ 0.999 µM) and the MIC (Neisseria gonorrhoeae, read-out: MIC GEOMEAN, strain CDC-0179, geomean of replicates) was 0.085 µg/mL (≈ 0.251 µM). The MIC (Neisseria gonorrhoeae, read-out: MIC GEOMEAN, strain CDC-0180, geomean of replicates) was 0.169 µg/mL (≈ 0.499 µM), the MIC (Neisseria gonorrhoeae, read-out: MIC GEOMEAN, strain CDC-0181, geomean of replicates) was 0.169 µg/mL (≈ 0.499 µM) and the MIC (Neisseria gonorrhoeae, read-out: MIC GEOMEAN, strain CDC-0182, geomean of replicates) was 0.169 µg/mL (≈ 0.499 µM). It also gave an MIC (Neisseria gonorrhoeae, read-out: MIC GEOMEAN, strain CDC-0183, geomean of replicates) of 0.338 µg/mL (≈ 0.999 µM), an MIC (Neisseria gonorrhoeae, read-out: MIC GEOMEAN, strain CDC-0184, geomean of replicates) of 0.169 µg/mL (≈ 0.499 µM) and an MIC (Neisseria gonorrhoeae, read-out: MIC GEOMEAN, strain CDC-0185, geomean of replicates) of 0.269 µg/mL (≈ 0.795 µM). It also gave an MIC (Neisseria gonorrhoeae, read-out: MIC GEOMEAN, strain CDC-0186, geomean of replicates) of 0.169 µg/mL (≈ 0.499 µM), an MIC (Neisseria gonorrhoeae, read-out: MIC GEOMEAN, strain CDC-0187, geomean of replicates) of 0.338 µg/mL (≈ 0.999 µM) and an MIC (Neisseria gonorrhoeae, read-out: MIC GEOMEAN, strain CDC-0188, geomean of replicates) of 0.169 µg/mL (≈ 0.499 µM). The MIC (Neisseria gonorrhoeae, read-out: MIC GEOMEAN, strain CDC-0189, geomean of replicates) was 0.134 µg/mL (≈ 0.396 µM), the MIC (Neisseria gonorrhoeae, read-out: MIC GEOMEAN, strain CDC-0190, geomean of replicates) was 0.169 µg/mL (≈ 0.499 µM) and the MIC (Neisseria gonorrhoeae, read-out: MIC GEOMEAN, strain HO41, geomean of replicates) was 0.169 µg/mL (≈ 0.499 µM). It also gave an MIC (Neisseria gonorrhoeae, read-out: MIC GEOMEAN, strain WHO F, geomean of replicates) of 0.066 µg/mL (≈ 0.195 µM), an MIC (Neisseria gonorrhoeae, read-out: MIC GEOMEAN, strain WHO G, geomean of replicates) of 0.132 µg/mL (≈ 0.39 µM) and an MIC (Neisseria gonorrhoeae, read-out: MIC GEOMEAN, strain WHO K, geomean of replicates) of 0.264 µg/mL (≈ 0.78 µM). The MIC (Neisseria gonorrhoeae, read-out: MIC GEOMEAN, strain WHO L, geomean of replicates) was 0.264 µg/mL (≈ 0.78 µM), the MIC (Neisseria gonorrhoeae, read-out: MIC GEOMEAN, strain WHO M, geomean of replicates) was 0.132 µg/mL (≈ 0.39 µM) and the MIC (Neisseria gonorrhoeae, read-out: MIC GEOMEAN, strain WHO N, geomean of replicates) was 0.264 µg/mL (≈ 0.78 µM). It also gave an MIC (Neisseria gonorrhoeae, read-out: MIC GEOMEAN, strain WHO O, geomean of replicates) of 0.132 µg/mL (≈ 0.39 µM), an MIC (Neisseria gonorrhoeae, read-out: MIC GEOMEAN, strain WHO P, geomean of replicates) of 0.333 µg/mL (≈ 0.984 µM) and an MIC (Neisseria gonorrhoeae, read-out: MIC GEOMEAN, strain WHO U, geomean of replicates) of 0.132 µg/mL (≈ 0.39 µM). For the same molecule, the MIC (Neisseria gonorrhoeae, read-out: MIC GEOMEAN, strain WHO V, geomean of replicates) was 0.264 µg/mL (≈ 0.78 µM), the MIC (Neisseria gonorrhoeae, read-out: MIC GEOMEAN, strain WHO W, geomean of replicates) was 0.132 µg/mL (≈ 0.39 µM) and the MIC (Neisseria gonorrhoeae, read-out: MIC GEOMEAN, strain WHO X, geomean of replicates) was 0.21 µg/mL (≈ 0.621 µM). The MIC (Neisseria gonorrhoeae, read-out: MIC GEOMEAN, strain WHO Y, geomean of replicates) was 0.21 µg/mL (≈ 0.621 µM).
